Results as given in patent US20130225641A1, “ANTICANCER COMPOUNDS AND PREPARATION METHODS THEREOF” (priority 2010, published 2013).

Tests used:
Type in all cases: in vivo, nude mice (nu/nu)
[1] = tested on: human liver cancer cells (HepG3B); assay: Transplantation model of human liver cancer (HepG3B) in nude mice; details: HepG3B subcutaneous in nude mice; oral daily 5 days/week, 3 weeks; ZTP 30 mg/kg, ZTQ 60 mg/kg; lower = stronger
Description: (§1) T-cell deficient nude mice (nu/nu) of 6 weeks old were purchased from Charles River Laboratory, and housed and treated in a sterile environment following Institutional Animal Care & Use Committee Program. 48 mice were respectively subcutaneously inoculated on ribbed belly with 5×10^6 human liver cancer cells (HepG3B), human lung caner cells (NCI-H23), and human colon cancer cells (HCT-116) suspended in 0.2 ml HBSS/matrigel (50:50, V/V). When the tumor grew to have an average diameter of 7-8 mm and a volume of about 100-200 mm^3, 24 mice were picked up, and assigned to treatment groups (16 animals/2 groups), and a control group (8 animals). The 2 treatment groups were administered with the compounds ZTP and ZTQ dissolved in 15% Captsol respectively at a dose of 30 mg/kg and 60 mg/kg, and the control group only received an excipient (15% Captsol).
(§2) The same number of mice of each type was assigned to the control group and the treatment groups with the compounds ZTP and ZTQ respectively.
(§3) The dose schedule of the test compounds in the tumor transplanted nude mice was as follows: the compounds ZTP and ZTQ dissolved in 15% Captsol were daily orally administered as a 200 μl solution containing 0.75 mg of ZTP and 1.5 mg of ZTQ for 5 days/week over 3 consecutive weeks, followed by one-week break; and the control group was only administered with 200 μl of the placebo (15% Captsol) for 3 weeks, followed by 1 week of break. The two groups of animals were housed separately, and allowed to free access to food.
(§4) Evaluation of antitumor effect: the tumor size was measured every 3 or 4 days. The tumor volume was calculated using the equation below: […], in which a denotes the width (the shorter diameter), and b denotes the length (the longer diameter). Relative tumor volume (RTV) of each tumor refers to the ratio of the volume at a specified time to that at the beginning of the treatment. The average RTV for each treatment group was calculated. The antitumor activity was determined by calculating the tumor growth inhibition using a formula below. […]

[2] = tested on: human lung cancer cells (NCI-H23); assay: Transplantation model of human lung cancer (NCI-H23) in nude mice; details: NCI-H23 subcutaneous in nude mice; oral daily 5 days/week, 3 weeks; ZTP 30 mg/kg, ZTQ 60 mg/kg; lower = stronger
Description: as §1, §2, §3, §4

[3] = tested on: human colon cancer cells (HCT-116); assay: Transplantation model of human colon cancer (HCT-116) in nude mice; details: HCT-116 subcutaneous in nude mice; oral daily 5 days/week, 3 weeks; ZTP 30 mg/kg, ZTQ 60 mg/kg; lower = stronger
Description: as §1, §2, §3, §4

[4] = Side effects in tumor transplanted nude mice; details: during treatment
Description: as §1, §3

Molecule | TGI (T/C×100) [1] | TGI (T/C×100) [2] | TGI (T/C×100) [3] | side effect, including the change in body weight [4]
CNC(=O)c1cc(Oc2ccc(NC(=O)Nc3ccc(Cl)c(C(F)(F)F)c3)cc2)ccn1 [Sorafenib, reference compound] | 14% | 11.25% | 33% | relatively large side effect
N-[4-chloro-3-(trifluoromethyl)phenyl]-[4-(N-methyl-formamide)(4-pyridyloxy)phenyl]-thiourea [ZTP] | – | – | – | no obvious side effect
